Assay results: ChEMBL document CHEMBL3638975, “Aminomethyl-4-imidazoles” (2013)

Target: Trace amine-associated receptor 1 (Mus musculus, UniProt Q923Y8)
Assay: Binding Assay: Radioligand binding assay: The radioligand [3H]-rac-2-(1,2,3,4-tetrahydro-1-naphthyl)-2-imidazoline was used at a concentration equal to the calculated Kd value of 60 nM to give a total binding at around 0.1% of the total added radioligand concentration, and a specific binding which represented approximately 70-80% of the total binding.

Trace amine-associated receptor 1, sequence (Q923Y8 whole entry): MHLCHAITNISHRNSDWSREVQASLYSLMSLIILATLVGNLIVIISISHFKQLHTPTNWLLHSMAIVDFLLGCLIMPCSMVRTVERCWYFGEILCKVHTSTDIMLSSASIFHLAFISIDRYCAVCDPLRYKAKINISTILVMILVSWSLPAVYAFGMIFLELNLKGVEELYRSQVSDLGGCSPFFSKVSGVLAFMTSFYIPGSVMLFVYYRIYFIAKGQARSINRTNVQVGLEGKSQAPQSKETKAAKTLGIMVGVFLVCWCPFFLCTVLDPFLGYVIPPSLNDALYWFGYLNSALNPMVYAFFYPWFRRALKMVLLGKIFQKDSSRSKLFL

Ki [nM]	Compound
2.9	CN(Cc1cnc[nH]1)c1cccc(F)c1
7.2	CCN(Cc1cnc[nH]1)c1ccc(CCc2ccc(Cl)cc2)cc1
